Results reported in patent US20200039918A1, “METHOD FOR PREPARING SINGLE CRYSTAL OF ANHYDROUS HALOGENATED CHOLINE OR DERIVATIVE THEREOF” (HEBEI UNIVERSITY OF SCIENCE AND TECHNOLOGY, priority 2017, published 2020).

Key:
[1] = water absorption and agglomeration after being placed in the air for 24 hours; type: physicochemical
[2] = TG
Experimental: The crystal structure and thermal stability of anhydrous choline chloride single crystal product obtained in Experiment example 1 were analyzed, respectively.

SMILES	agglomeration [1]	water absorption amount [1] [wt %]	initial temperature of thermal cracking ([2]; FIG. 5) [°C]	temperature at which the weight loss rate reaches the maximum ([2]; FIG. 5) [°C]	thermal stability (comparison in words) ([2]; versus commercial product)	temperature at which weight loss began ([2]; weight loss ascribed to evaporation of water) [°C]
CC(=O)OCC[N+](C)(C)C.[Cl-] [acetylcholine chloride]	not agglomerated	1.58	–	–	–	–
C[N+](C)(C)CCO.[I-] [anhydrous choline iodide single crystal, choline iodide]	not agglomerated	2.30	–	–	–	–
C[N+](C)(C)CCO.[Cl-] [choline chloride]	not agglomerated	2.58	350	370	better than that of commercial choline chloride	330
CCC(=O)OCC[N+](C)(C)C.[Br-] [propionylcholine bromide]	not agglomerated	0.77	–	–	–	–
CCC(=O)OCC[N+](C)(C)C.[Cl-] [propionylcholine chloride]	not agglomerated	1.06	–	–	–	–
